Experimental data: ChEMBL document CHEMBL1201862, “PubChem BioAssay data set” (2004)
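Method: 48-hour compound exposure of cells in 96-well plates, five concentrations, linear interpolation of endpoints. GI50 = concentration required for 50% inhibition of growth.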 The source made the active and inactive calls. Rule as the data show it: active = GI50 up to about 1.1 µM and inactive = higher. Where a SMILES comes first, the peptide text is derived from it. [ ]: non-standard residue; d: D form. The star is where a group is joined. Phe(4-NO2) = N[CH](Cc1ccc([N+](=O)[O-])cc1)C(=O)O; Boc = CC(C)(C)OC(=O)*; OtBu = CC(C)(C)O*

What was measured:
Experiment in all cases: growth of human tumour cells (NCI), 48 h
786-0 = test system: 786-0
ACHN = test system: ACHN
CAKI-1 = test system: CAKI-1
DU-145 = test system: DU-145
HCT-116 = test system: HCT-116
HOP-62 = test system: HOP-62
KM12 = test system: KM12
NCI-H460 = test system: NCI-H460
NCI/ADR-RES = test system: NCI/ADR-RES
OVCAR-4 = test system: OVCAR-4
OVCAR-5 = test system: OVCAR-5
SK-MEL-2 = test system: SK-MEL-2
SW-620 = test system: SW-620
TK-10 = test system: TK-10
U-251 = test system: U-251
UO-31 = test system: UO-31
Hs-578T = test system: Hs-578T
RPMI-8226 = test system: RPMI-8226
CCRF-CEM = test system: CCRF-CEM

Measured: GI50

CC(=O)/C(=C/n1ccc(=O)[nH]c1=S)C(=O)Nc1ccccc1C
inactive: 786-0 > 100 µM | ACHN > 100 µM | CAKI-1 > 100 µM | DU-145 > 100 µM | HCT-116 > 100 µM | HOP-62 > 100 µM | KM12 > 100 µM | NCI-H460 > 100 µM | NCI/ADR-RES > 100 µM | OVCAR-4 > 100 µM | OVCAR-5 > 100 µM | SK-MEL-2 > 100 µM | SW-620 > 100 µM | TK-10 > 100 µM | U-251 > 100 µM | UO-31 > 100 µM

COc1ccccc1NC(=O)C(=O)C(C#N)CC(C)(C)C=O (stereo not given)
inactive: 786-0 > 100 µM | ACHN > 100 µM | CAKI-1 > 100 µM | HCT-116 > 100 µM | HOP-62 > 100 µM | Hs-578T > 100 µM | KM12 > 100 µM | NCI-H460 > 100 µM | NCI/ADR-RES > 100 µM | OVCAR-4 > 100 µM | OVCAR-5 > 100 µM | RPMI-8226 > 100 µM | SK-MEL-2 > 100 µM | SW-620 > 100 µM | TK-10 > 100 µM | U-251 > 100 µM | UO-31 > 100 µM

O=c1c2cc(-c3ccccc3)cnc2sn1-c1ccc(Br)cc1
inactive: 786-0 > 100 µM | ACHN > 100 µM | CAKI-1 > 100 µM | CCRF-CEM 95.5 µM | DU-145 > 100 µM | HCT-116 > 100 µM | HOP-62 > 100 µM | KM12 > 100 µM | NCI-H460 > 100 µM | NCI/ADR-RES > 100 µM | OVCAR-4 > 100 µM | OVCAR-5 > 100 µM | RPMI-8226 > 100 µM | SK-MEL-2 > 100 µM | SW-620 > 100 µM | U-251 > 100 µM | UO-31 > 100 µM

CNC1=Nc2ccccc2C(=S)N2CSC[C@@H]12
inactive: 786-0 > 100 µM | ACHN > 100 µM | CAKI-1 > 100 µM | DU-145 > 100 µM | HCT-116 > 100 µM | HOP-62 > 100 µM | KM12 > 100 µM | NCI-H460 > 100 µM | NCI/ADR-RES > 100 µM | OVCAR-4 > 100 µM | OVCAR-5 > 100 µM | RPMI-8226 > 100 µM | SK-MEL-2 > 100 µM | SW-620 > 100 µM | TK-10 > 100 µM | U-251 > 100 µM | UO-31 > 100 µM

Cc1c/c(=N/NC(=O)c2ccncc2)n2nc(N)sc2n1
inactive: 786-0 > 100 µM | ACHN > 100 µM | CAKI-1 > 100 µM | CCRF-CEM > 100 µM | DU-145 > 100 µM | HCT-116 > 100 µM | HOP-62 > 100 µM | KM12 > 100 µM | NCI-H460 > 100 µM | NCI/ADR-RES > 100 µM | OVCAR-4 > 100 µM | OVCAR-5 > 100 µM | RPMI-8226 > 100 µM | SK-MEL-2 > 100 µM | SW-620 > 100 µM | U-251 > 100 µM | UO-31 > 100 µM

N=C(N)NCCCC(NC(=O)c1c2ccccc2nc2ccccc12)C(=O)O (stereo not given)
inactive: 786-0 > 100 µM | ACHN > 100 µM | CAKI-1 > 100 µM | CCRF-CEM > 100 µM | DU-145 > 100 µM | HCT-116 > 100 µM | HOP-62 > 100 µM | KM12 > 100 µM | NCI-H460 > 100 µM | NCI/ADR-RES > 100 µM | OVCAR-4 > 100 µM | OVCAR-5 > 100 µM | RPMI-8226 > 100 µM | SK-MEL-2 > 100 µM | SW-620 > 100 µM | TK-10 > 100 µM | U-251 > 100 µM | UO-31 > 100 µM

COCC1OCCN1C (stereo not given)
inactive: 786-0 > 100 µM | ACHN > 100 µM | CAKI-1 > 100 µM | CCRF-CEM > 100 µM | HCT-116 > 100 µM | HOP-62 > 100 µM | Hs-578T > 100 µM | KM12 88.3 µM | NCI-H460 > 100 µM | NCI/ADR-RES > 100 µM | OVCAR-4 > 100 µM | OVCAR-5 > 100 µM | RPMI-8226 > 100 µM | SK-MEL-2 > 100 µM | SW-620 > 100 µM | TK-10 > 100 µM | U-251 > 100 µM | UO-31 > 100 µM

CCCCN(CCCC)C1(c2cc3ccccc3s2)CCCCC1.[O-][Cl+3]([O-])([O-])O
inactive: 786-0 13.7 µM | ACHN 16.6 µM | CAKI-1 18.7 µM | CCRF-CEM 12.1 µM | DU-145 16.3 µM | HCT-116 10.8 µM | HOP-62 15.1 µM | KM12 16 µM | NCI-H460 13.5 µM | NCI/ADR-RES 17.7 µM | OVCAR-4 15.4 µM | OVCAR-5 18.4 µM | SK-MEL-2 19.8 µM | SW-620 15 µM | TK-10 17.3 µM | U-251 17.3 µM | UO-31 18.6 µM

Nc1[nH]c(=O)[nH]c(=O)c1Cc1cccc(Cl)c1
inactive: 786-0 > 100 µM | ACHN > 100 µM | CAKI-1 > 100 µM | HCT-116 45.5 µM | HOP-62 > 100 µM | Hs-578T 39.6 µM | KM12 80.5 µM | NCI-H460 56.8 µM | NCI/ADR-RES > 100 µM | OVCAR-4 57.9 µM | OVCAR-5 > 100 µM | RPMI-8226 79.6 µM | SK-MEL-2 71.9 µM | SW-620 96.2 µM | TK-10 63.7 µM | U-251 > 100 µM | UO-31 26.2 µM

O=C(NCCO)Nc1c(C(F)(F)F)cc(-c2ccccc2)[nH]c1=O
inactive: 786-0 > 100 µM | ACHN > 100 µM | CAKI-1 > 100 µM | CCRF-CEM > 100 µM | DU-145 > 100 µM | HCT-116 > 100 µM | HOP-62 > 100 µM | KM12 > 100 µM | NCI-H460 > 100 µM | NCI/ADR-RES > 100 µM | OVCAR-4 > 100 µM | OVCAR-5 > 100 µM | RPMI-8226 > 100 µM | SK-MEL-2 > 100 µM | SW-620 > 100 µM | TK-10 > 100 µM | U-251 > 100 µM | UO-31 > 100 µM

CC(=O)NC(CCC(=O)OC(C)(C)C)C(=O)NC(CCC(=O)OC(C)(C)C)C(=O)NC(Cc1ccc([N+](=O)[O-])cc1)C(=O)NC(CCCCNC(=O)OC(C)(C)C)C(=O)NC(CCCCNC(=O)OC(C)(C)C)C(=O)NCC(=O)O (stereo not given) (Ac-E(OtBu)E(OtBu)[Phe(4-NO2)]K(Boc)K(Boc)G-OH; configuration not given here)
inactive: 786-0 > 100 µM | ACHN > 100 µM | CAKI-1 > 100 µM | CCRF-CEM > 100 µM | DU-145 > 100 µM | HCT-116 > 100 µM | HOP-62 > 100 µM | KM12 > 100 µM | NCI-H460 > 100 µM | NCI/ADR-RES > 100 µM | OVCAR-4 > 100 µM | OVCAR-5 > 100 µM | RPMI-8226 > 100 µM | SK-MEL-2 75.2 µM | SW-620 > 100 µM | TK-10 > 100 µM | U-251 > 100 µM | UO-31 > 100 µM
